Reference: publication PMC2932959 (Journal of medicinal chemistry, 2010)

Columns and labels:
NET = assay type: binding, rat; settings: selectivity ratio for SERT over NET
DAT = DAT (Rattus norvegicus, UniProt P23977); assay type: binding
Chain of DAT (P23977 whole entry): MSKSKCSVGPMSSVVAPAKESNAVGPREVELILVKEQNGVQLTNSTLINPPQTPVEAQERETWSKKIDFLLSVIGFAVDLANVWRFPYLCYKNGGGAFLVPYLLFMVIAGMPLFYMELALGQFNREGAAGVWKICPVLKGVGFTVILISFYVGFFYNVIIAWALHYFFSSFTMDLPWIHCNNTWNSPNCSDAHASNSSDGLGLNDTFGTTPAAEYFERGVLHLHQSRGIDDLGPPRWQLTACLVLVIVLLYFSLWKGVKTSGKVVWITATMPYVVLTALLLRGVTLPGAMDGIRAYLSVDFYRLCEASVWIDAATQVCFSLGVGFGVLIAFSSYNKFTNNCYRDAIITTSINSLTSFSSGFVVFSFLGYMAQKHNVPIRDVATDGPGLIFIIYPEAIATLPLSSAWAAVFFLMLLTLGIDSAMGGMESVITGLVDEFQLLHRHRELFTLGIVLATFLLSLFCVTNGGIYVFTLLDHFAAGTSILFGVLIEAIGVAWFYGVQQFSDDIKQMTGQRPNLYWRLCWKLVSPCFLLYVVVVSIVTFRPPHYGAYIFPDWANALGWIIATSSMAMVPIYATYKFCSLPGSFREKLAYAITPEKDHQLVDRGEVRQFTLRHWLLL

With `COc1cccc(-c2ccc3c(c2)COC3(CCCN(C)C)c2ccc(F)cc2)c1` (stereo not shown) [Compound 11, 3-(1-(4-Fluorophenyl)-5-(3’-methoxyphenyl)-1,3-dihydroisobenzofuran-1-yl)-N,N-dimethylpropan-1-amine] the “Ki(NET)/Ki (SERT)” value (NET) was 284.
With `CN(C)CCCC1(c2ccc(F)cc2)OCc2cc(CCc3ccccc3)ccc21` (stereo not shown) [Compound 14, 3-(1-(4-Fluorophenyl)-5-phenethyl-1,3-dihydroisobenzofuran-1-yl)-N,N-dimethylpropan-1-amine] the “Ki(NET)/Ki (SERT)” value (NET) was 122.
For `CN(C)CCCC1(c2ccc(F)cc2)OCc2cc(-c3cccc(F)c3)ccc21` (stereo not shown) [Compound 15, 3-(5-(3-Fluorophenyl)-1-(4-fluorophenyl)-1,3-dihydroisobenzofuran-1-yl)-N,N-dimethylpropan-1-amine], the “Ki(NET)/Ki (SERT)” value (NET) was 193.
For `CN(C)CCCC1(c2ccc(F)cc2)OCc2cc(Br)ccc21` (stereo not shown) [Compound 5, 3-(5-bromo-1-(4-fluorophenyl)-1,3-dihydroisobenzofuran-1-yl)-N,N-dimethylpropan-1-amine], the “Ki(NET)/Ki (SERT)” value (NET) was >10,000, the Ki (DAT) was 1650 ± 112 nM and the “Ki(DAT)/Ki (SERT)” value (DAT; selectivity ratio for SERT over DAT) was 1590.
With `CN(C)CCCC1(c2ccc(F)cc2)OCc2cc(-c3cc(F)cc(F)c3)ccc21.O=C(O)C(=O)O` (stereo not shown) [Compound 13, 3-(5-(3,5-Difluorophenyl)-1-(4-fluorophenyl)-1,3-dihydroisobenzofuran-1-yl)-N,N-dimethylpropan-1-amine oxalate] the “Ki(NET)/Ki (SERT)” value (NET) was 19.
